Laboratory results as given in US20250360087A1, “COMPOSITIONS COMPRISING LIPID DROPLETS ENCAPSULATED WITHIN POLYSACCHARIDE WALLS AND USES THEREOF” (UNIVERSITY OF SOUTH AUSTRALIA, priority 2022, published 2025).

Legend:
S. aureus biofilms = assay: In vitro biofilm study, crystal violet assay; assay type: cell-based, Staphylococcus aureus
Protocol: Bacterial suspension was further diluted 1/15 with broth and subsequently added to the wells of a 96-well plate. The outer wells were filled with PBS (200 μL) for hydration purposes and the second right column contained sterile broth (100 μL) to serve as negative control. The plate was wrapped in aluminium foil and incubated on a 3D rotating platform at 70 rpm at 37° C. for 24 h to grow biofilms. After 24 h incubation, turbid biofilms sitting at the bottom of wells could be assessed visually. The broth in the wells of the plate was aspired gently by a vacuum pump without disturbing the biofilms and the wells were washed with 0.9% Saline (100 μL) twice to remove nonadherent bacteria. […] The plate was wrapped in aluminium foil and incubated on a 3D rotating platform at 70 rpm at 37° C. for 24 h. After 24 h of exposure to the formulations, supernatants were removed gently without disturbing the biofilms by a vacuum pump and the wells were washed with 0.9% Saline (100 μL) twice. Biofilms were fixed by oven heating at 60° C. for 1 h. […] The biofilm biomass of S. aureus was quantified by spectrometry at 595 nm in 96 well plate reader.

S. aureus ATCC 25923 = assay: Minimum inhibitory concentration of rifampicin in S. aureus; assay type: cell-based; settings: Staphylococcus aureus, ATCC25923; 24 h, 37° C., turbidity; read-out: MIC, concentration required to inhibit growth
Protocol: Single colonies of S. aureus ATCC 25923 were suspended in 0.9% sterile saline to reach approximately 1×10^8 colony forming units (CFU)/mL (equivalent to an optical density of 0.08-0.12 at 600 nm). The bacterial suspension was further diluted 1/100 with broth. Bacterial suspension was added to 96-wells. […] The 96-well plate was incubated at 37° C. for 24 h. The plates were visually assessed for turbidity indicating growth of bacteria.

RAW 264.7 macrophages = assay: Cellular cytotoxicity, MTT assay; assay type: cell-based, Murine; settings: after 1 h incubation
Protocol: 100 μL of cell suspension at a density of 7000 cells per well was seeded in 96-well plate and incubated (37° C., 5% CO2) for 12 h to allow the attachment of cells. After incubation the supernatant was discarded and replaced with 200 μL of particle solution (in DMEM) at various concentrations (ranging from 10 to 100 μg/mL) and incubated for further 24 h. After incubation, the cells were washed with sterile PBS and 10 μL of MTT (3-(4,5-dimethylthiazol-2-yl)-2,5-diphenyltetrazolium bromide) solvent was added to each well prior to incubation for a further 4 h. Afterward, the supernatant was discarded, and the absorbance was read at OD=540 nm using a microplate reader.

Molecule | biofilm biomass remaining (S. aureus biofilms; exposure to 1 μg/mL of rifampicin) [%] | reduction in biofilm biomass (S. aureus biofilms; rifampicin 16 μg/mL, 24 h) | biofilm reduction (S. aureus biofilms; rifampicin 1 to 16 μg/mL, 24 h) | MIC (S. aureus ATCC 25923) [µg/mL] | cellular viability (positive control) (RAW 264.7 macrophages)
CO[C@H]1/C=C/O[C@@]2(C)Oc3c(C)c(O)c4c(O)c(c(/C=N/N5CCN(C)CC5)c(O)c4c3C2=O)NC(=O)/C(C)=C\C=C\[C@H](C)[C@H](O)[C@@H](C)[C@@H](O)[C@@H](C)[C@H](OC(C)=O)[C@@H]1C [rifampicin] | 34 | up to 82% | more than 50% | < 0.0156 | 
Triton-X |  |  |  |  | no cellular viability
